Assay results from ChEMBL document CHEMBL3044628, “Okaramine C, a New Insecticidal Indole Alkaloid from Penicillium simplicissimum” (1991).

Tested on: Bombyx mori
Assay: Insecticidal activity against po dosed larvae of Bombyx mori assessed per gram of diet
Format: functional

In the case of `C=CC(C)(C)c1[nH]c2ccccc2c1CC1NC(=O)[C@H]2C[C@@]3(O)c4ccccc4N(C(C)(C)C=C)[C@H]3N2C1=O` (stereo partly drawn) [OKARAMINE C], the LD50 is reported as 7 mg/kg.
For `C=CC(C)(C)N1c2ccccc2[C@]2(O)C[C@@H]3C(=O)N4/C=C\C(C)(C)c5[nH]c6ccccc6c5/C=C\4C(=O)N3[C@H]12` [OKARAMINE A], the LD50 was 8 mg/kg.
For `CO[C@@H]1[C@]2(O)C(=O)N3/C=C\C(C)(C)c4[nH]c5ccccc5c4/C=C\3C(=O)N2[C@]23[C@H](C)C(C)(C)N2c2ccccc2[C@]13O` [OKARAMINE B], the LD50 was 0.2 mg/kg.
